Broadly, the EC50 is the concentration at which the effect is half-maximal. Higher therefore signals a need for much substance.

SMILES strings stand for the structures.

Assay [1] deals with T1, rat vanilloid receptor 1 (VR1/TRPV1) (Rattus norvegicus, UniProt O35433).
T1 construct: expressed in transfected cells; host or cells: CHO K1 cells (ECACC)
In words: FLIPR Ca2+ influx functional study on rat vanilloid receptor 1. The class given is cell-based. The following applies: CHO K1 cells transfected with rat VR1; for Emax at 10 µM: test substance 10 μM, Ca2+ signal relative to 10 μM capsaicin, read-out: VR1 (Rat) (% Stimulation compared with 10 μM CP). From the text: (§1) 1. Functional Study on the Vanilloid Receptor 1 (VR1/TRPV1 Receptor)
(§2) The agonist activity or antagonist activity of the substances to be tested on the vanilloid receptor 1 (VR1/TRPV1) of the species human and rat can be determined using the following assay. According to this assay, the Ca^2+ influx through the channel is quantified by means of a Ca^2+-sensitive dye (type Fluo-4, Molecular Probes Europe BV, Leiden, Netherlands) in the Fluorescent Imaging Plate Reader (FLIPR, Molecular Devices, Sunnyvale, USA).
(§3) Chinese hamster ovary cells (CHO K1 cells, European Collection of Cell Cultures (ECACC), England) are stably transfected with the human or rat vanilloid receptor 1 (VR1) gene. For functional studies, these cells are plated out in a density of 25,000 cells/well on poly-D-lysine-coated, black 96-well plates having a clear base (BD Biosciences, Heidelberg, Germany). The cells are incubated overnight at 37° C. and 5% CO2 in culture medium (Nutrient Mixture Ham's F12, Gibco Invitrogen GmbH, Karlsruhe, Germany) with 10% v/v of FBS (fetal bovine serum, Gibco Invitrogen GmbH, Karlsruhe, Germany) and 18 μg/ml of L-proline (Gibco Invitrogen GmbH, Karlsruhe, Germany). On the following day, the cells are charged with 2 μM of Fluo-4 and 0.01% v/v of Pluronic F127 (Molecular Probes Europe BV, Leiden, Netherlands) in HBSS buffer solution (Hank's buffered saline solution, Gibco Invitrogen GmbH, Karlsruhe, Germany) for 30 minutes at 37° C. The plates are then washed three times with HBSS buffer solution and, after incubation for a further 15 minutes at room temperature, used in the FLIPR assay for Ca^2+ measurement. The Ca^2+-dependent fluorescence is measured before and after the addition of test substances (λex=488 nm, λem=540 nm). Quantification is effected by measuring the highest fluorescence intensity (FC, fluorescence counts) over time.
(§4) The FLIPR protocol consists of two additions of test substance. Test substances (10 μM) are first pipetted onto the cells and the Ca^2+ influx is compared with the control (capsaicin 10 μM). This gives the percentage activation, based on the Ca^2+ signal after the addition of 10 μM of capsaicin (CP). After 5 minutes' incubation, 100 nM of capsaicin are applied and the influx of Ca^2+ is likewise determined. Desensitizing agonists and antagonists lead to suppression of the Ca^2+ influx. The percentage inhibition compared with the maximum achievable inhibition is calculated using 10 μM of capsaicin. In order to determine the EC50 values, the substances are added in various concentrations. Determinations are carried out in triplicate (n=3) and these are repeated in at least three independent experiments (N=4).
(§5) The agonist activity or antagonist activity was determined on human and rat vanilloid receptor 1 (VR1/TRPV1 receptor) using the above-described FLIPR assay.

Assay [2] addresses T2, human vanilloid receptor 1 (VR1/TRPV1) (Homo sapiens, UniProt Q8NER1).
T2 construct: expressed in transfected cells; host or cells: CHO K1 cells (ECACC)
Nature of the assay: FLIPR Ca2+ influx functional study on human vanilloid receptor 1. The following applies: CHO K1 cells transfected with human VR1; for Emax at 10 µM: test substance 10 μM, Ca2+ signal relative to 10 μM capsaicin, read-out: VR1 (Human) (% Stimulation compared with 10 μM CP). It is filed as cell-based.
Source text: as §1, §2, §3, §4, §5

Assay [3] has as its system phenylquinone-induced writhing in mice. Nature of the assay: Phenylquinone-induced writhing test on mice. The class given is in vivo, male NMRI mice. The following applies: phenylquinone i.p. 10 min after dose. The protocol:
2. Analgesic Test Using the Writhing Test on Mice
The analysis of analgesic activity in the compounds of the invention of formula is carried out using the phenylquinone-induced writhing assay in mice, modified as described in the article by I. C. Hendershot and J. Forsaith (1959) in J. Pharmacol. Exp. Ther. 125, 237-240. The relevant description is incorporated herein by reference and is to be regarded as part of the present disclosure.
For the present purpose, male NMRI mice are used having a weight of from 25 to 30 g. Groups of 10 animals per substance dose received, 10 minutes after an intravenous dose of test substances, an intraperitoneal administration of 0.3 ml/mouse of a 0.02% strength aqueous solution of phenylquinone(phenylbenzoquinone, obtainable from Sigma, Deisenhofen; solution produced with the addition of 5% of ethanol and storage in a water bath at 45° C.). The animals were placed individually in observation cages. Using a pushbutton counter, the number of pain-induced stretching movements (so-called writhing reactions=straightening of the body accompanied by stretching of the rear extremities) was counted over a period of from 5 to 20 minutes following the administration of phenylquinone. The control is provided by animals receiving only physiological saline. […]
On the technique in general: An intraperitoneal irritant provokes the stretching counted in writhing tests.

T1 sequence (O35433 whole entry): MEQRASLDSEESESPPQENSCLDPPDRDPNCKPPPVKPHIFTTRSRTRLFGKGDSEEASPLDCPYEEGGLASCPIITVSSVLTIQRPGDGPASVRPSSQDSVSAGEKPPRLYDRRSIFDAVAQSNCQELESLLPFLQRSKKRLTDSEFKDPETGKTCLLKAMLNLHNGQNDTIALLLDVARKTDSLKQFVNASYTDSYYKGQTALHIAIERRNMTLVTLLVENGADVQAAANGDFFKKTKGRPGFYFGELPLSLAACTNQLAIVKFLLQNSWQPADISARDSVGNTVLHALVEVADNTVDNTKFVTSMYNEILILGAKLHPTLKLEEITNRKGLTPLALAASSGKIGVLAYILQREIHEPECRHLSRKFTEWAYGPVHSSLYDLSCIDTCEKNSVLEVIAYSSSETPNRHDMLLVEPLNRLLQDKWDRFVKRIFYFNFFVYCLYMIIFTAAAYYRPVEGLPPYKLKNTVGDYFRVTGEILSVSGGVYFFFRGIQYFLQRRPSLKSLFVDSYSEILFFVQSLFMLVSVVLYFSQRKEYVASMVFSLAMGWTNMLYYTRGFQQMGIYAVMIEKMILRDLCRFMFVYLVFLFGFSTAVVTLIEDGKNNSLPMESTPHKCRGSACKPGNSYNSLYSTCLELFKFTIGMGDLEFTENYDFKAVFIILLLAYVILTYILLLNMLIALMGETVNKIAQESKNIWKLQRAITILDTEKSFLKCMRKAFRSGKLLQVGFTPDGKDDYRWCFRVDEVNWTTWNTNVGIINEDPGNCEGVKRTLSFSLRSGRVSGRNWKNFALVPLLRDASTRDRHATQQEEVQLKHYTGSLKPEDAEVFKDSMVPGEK
T2 sequence (Q8NER1 whole entry): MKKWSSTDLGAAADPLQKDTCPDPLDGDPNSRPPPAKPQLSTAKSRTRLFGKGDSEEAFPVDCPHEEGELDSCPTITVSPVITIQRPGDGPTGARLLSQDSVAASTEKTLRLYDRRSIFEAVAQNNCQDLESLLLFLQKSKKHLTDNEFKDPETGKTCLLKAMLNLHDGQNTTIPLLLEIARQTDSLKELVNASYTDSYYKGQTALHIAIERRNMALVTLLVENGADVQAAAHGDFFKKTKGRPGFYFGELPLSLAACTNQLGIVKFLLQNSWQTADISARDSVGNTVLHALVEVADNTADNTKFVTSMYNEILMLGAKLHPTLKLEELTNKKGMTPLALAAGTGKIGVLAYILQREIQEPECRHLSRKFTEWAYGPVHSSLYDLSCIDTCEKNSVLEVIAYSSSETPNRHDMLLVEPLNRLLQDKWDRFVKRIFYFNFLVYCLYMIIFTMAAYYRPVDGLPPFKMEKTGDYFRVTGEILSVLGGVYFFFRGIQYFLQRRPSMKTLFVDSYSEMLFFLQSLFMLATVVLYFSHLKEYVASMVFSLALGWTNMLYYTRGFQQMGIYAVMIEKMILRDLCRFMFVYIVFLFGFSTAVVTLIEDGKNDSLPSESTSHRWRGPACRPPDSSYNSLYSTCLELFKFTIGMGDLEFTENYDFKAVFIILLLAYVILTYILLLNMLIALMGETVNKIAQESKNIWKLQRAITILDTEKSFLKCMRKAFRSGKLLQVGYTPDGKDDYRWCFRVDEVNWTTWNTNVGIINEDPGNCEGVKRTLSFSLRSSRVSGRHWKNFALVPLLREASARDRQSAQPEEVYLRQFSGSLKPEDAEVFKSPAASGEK

`CCc1ccc(/C=C/C(=O)NCc2ccc(O)c(OC)c2)cc1` [Example 2, para-ethyl-trans-N-(4-hydroxy-3-methoxybenzyl)-cinnamic acid amide]: the Emax at 10 µM was 84% in assay [1] and 71% in assay [2]. In addition, the “Reduction of Nociceptive Behavior Relative to Controls” value in assay [3] (0.1 mg/kg i.v.) stood at 54%.
For the compound `COc1cc(CNC(=O)/C=C/c2ccc(C(C)(C)C)cc2)ccc1O` [Example 4, para-tert.-Butyl-trans-N-(4-hydroxy-3-methoxybenzyl)-cinnamic acid amide], the values for the EC50 in assay [1] (FLIPR Ca2+ influx) and in assay [2] (FLIPR Ca2+ influx) were 129 pM and 147 pM, respectively. Besides, the Emax at 10 µM in assay [1] was 106%; in assay [2] it was 115%. The “Reduction of Nociceptive Behavior Relative to Controls” value in assay [3] (0.1 mg/kg i.v.) amounted to 63%.
In the case of `CCCCc1ccc(/C=C/C(=O)NCc2ccc(O)c(OC)c2)cc1` [Example 8, para-butyl-trans-N-(4-hydroxy-3-methoxybenzyl)-cinnamic acid amide], the Emax at 10 µM in assay [1] was found to be 132%; in assay [2] it was 110%.
In the same order, the values of `COc1cc(CNC(=O)/C=C/c2ccc(C)cc2)ccc1O` [Example 1, para-methyl-trans-N-(4-hydroxy-3-methoxybenzyl)-cinnamic acid amide] are 92% and 56%.
On to `COc1cc(CNC(=O)/C=C/c2ccc(CC(C)C)cc2)ccc1O` [Example 6, para-iso-butyl-trans-N-(4-hydroxy-3-methoxybenzyl)-cinnamic acid amide], for which the Emax at 10 µM amounted to 141% in assay [1] and 103% in assay [2]. The “Reduction of Nociceptive Behavior Relative to Controls” value in assay [3] (0.1 mg/kg i.v.) is reported as 70%.
With `COc1cc(CNC(=O)/C=C/c2ccc(CC(C)(C)C)cc2)ccc1O` [Example 7, para-neo-pentyl-trans-N-(4-hydroxy-3-methoxybenzyl)-cinnamic acid amide], the Emax at 10 µM is 142% in assay [1] and 102% in assay [2].
Take `COc1cc(CNC(=O)/C=C/c2ccc(C(C)C)cc2)ccc1O` [Example 3, para-isopropyl-trans-N-(4-hydroxy-3-methoxybenzyl)-cinnamic acid amide]: the Emax at 10 µM turned out to be 97% in assay [1] and 71% in assay [2]. Besides, the “Reduction of Nociceptive Behavior Relative to Controls” value in assay [3] (0.1 mg/kg i.v.) amounted to 52%.
In the same order, the values of `CCCCCCCCc1ccc(/C=C/C(=O)NCc2ccc(O)c(OC)c2)cc1` [Example 9, para-octyl-trans-N-(4-hydroxy-3-methoxybenzyl)-cinnamic acid amide] are 126%, 97% and 47%.
As for `CCCc1ccc(/C=C/C(=O)NCc2ccc(O)c(OC)c2)cc1` [Example 5, para-propyl-trans-N-(4-hydroxy-3-methoxybenzyl)-cinnamic acid amide], the figures for the Emax at 10 µM in assay [1] and in assay [2] were 119% and 102%, respectively. In assay [3] (0.316 mg/kg i.v.), the “Reduction of Nociceptive Behavior Relative to Controls” value is given as 55%.

The values are drawn from patent US7541495B2, “para-alkyl-substituted N-(4-hydroxy-3-methoxy-benzyl)-cinnamamides, pharmaceutical compositions and uses thereof” (Gruenenthal GmbH, priority 2004, dated 2009).
